From PubChem BioAssay AID256 (DTP/NCI, 2004)
Toxic doses and inconclusive results are not listed. The calls were made as follows: active = survival T/C of 150% or more; inactive = T/C below 125% in these data. Non-standard residues stand in square brackets, D forms with d. Residues, ends and D or L forms follow the SMILES beside them. ξ: configuration not given here. *: point of attachment. Boc = CC(C)(C)OC(=O)*; ξP = O=C(O)C1CCCN1

System: CD2F1 mice, L1210 leukemia ip, survival T/C
Assay: NCI In Vivo Anticancer Drug Screen. Data for tumor model L1210 Leukemia (intraperitoneal) in CD2F1 (CDF1) mice
Settings: higher = longer survival
How it was run: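 Ratio T/C, where T is the treated-group value and C the vehicle-dosed control value, from mice implanted with a transplantable tumor.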

[1] = endpoint: mean survival time, dose: 100.0 mg/kg/injection, schedule: Q04DX003 (ip), vehicle: saline with Tween-80
[2] = endpoint: mean survival time, dose: 200.0 mg/kg/injection, schedule: Q04DX003 (ip), vehicle: saline with Tween-80
[3] = endpoint: mean survival time, dose: 400.0 mg/kg/injection, schedule: Q04DX003 (ip), vehicle: saline with Tween-80
[4] = endpoint: mean survival time, dose: 100.0 mg/kg/injection, schedule: Q01DX009 (ip), vehicle: saline with Tween-80
[5] = endpoint: mean survival time, dose: 200.0 mg/kg/injection, schedule: Q01DX009 (ip), vehicle: saline with Tween-80
[6] = endpoint: mean survival time, dose: 400.0 mg/kg/injection, schedule: Q01DX009 (ip), vehicle: saline with Tween-80
[7] = endpoint: mean survival time, dose: 50.0 mg/kg/injection, schedule: Q04DX003 (ip), vehicle: saline with Tween-80
[8] = endpoint: mean survival time, dose: 100.0 mg/kg/injection, schedule: Q01DX001 (ip), vehicle: saline with Tween-80
[9] = endpoint: mean survival time, dose: 200.0 mg/kg/injection, schedule: Q01DX001 (ip), vehicle: saline with Tween-80
[10] = endpoint: mean survival time, dose: 100.0 mg/kg/injection, schedule: Q04DX003 (ip), vehicle: saline
[11] = endpoint: mean survival time, dose: 400.0 mg/kg/injection, schedule: Q01DX001 (ip), vehicle: saline with Tween-80

Measured: T/C

N#CC(=C1CCCCC1)c1ccccc1
inactive: endpoint: mean survival time, dose: 75.0 mg/kg/injection, schedule: Q01DX001 (ip), vehicle: saline 98 % of control | endpoint: mean survival time, dose: 150.0 mg/kg/injection, schedule: Q01DX001 (ip), vehicle: saline 104 % of control | endpoint: mean survival time, dose: 300.0 mg/kg/injection, schedule: Q01DX001 (ip), vehicle: saline 96 % of control

O=C(COc1ccc(Cl)cc1Cl)Nc1ccc(F)cc1
inactive: [1] 88 % of control | [2] 90 % of control | [3] 89 % of control

COC(=O)C(N)CSCc1ccccc1 (stereo not given)
inactive: endpoint: mean survival time, dose: 100.0 mg/kg/injection, schedule: Q01DX001 (ip), vehicle: saline 100 % of control | endpoint: mean survival time, dose: 100.0 mg/kg/injection, schedule: Q01DX009 (ip), vehicle: saline 102 % of control | endpoint: mean survival time, dose: 200.0 mg/kg/injection, schedule: Q01DX009 (ip), vehicle: saline 97 % of control | endpoint: mean survival time, dose: 400.0 mg/kg/injection, schedule: Q01DX001 (ip), vehicle: saline 100 % of control | endpoint: mean survival time, dose: 400.0 mg/kg/injection, schedule: Q01DX009 (ip), vehicle: saline 98 % of control

O=C(CC(c1ccccc1)c1ccccc1)c1ccccc1
inactive: [4] 98 % of control | [5] 95 % of control | [6] 98 % of control

O=c1ccnc2cc[nH]n12
inactive: endpoint: median survival time, dose: 50.0 mg/kg/injection, schedule: Q01DX005 (ip), vehicle: saline 104 % of control | endpoint: median survival time, dose: 100.0 mg/kg/injection, schedule: Q01DX005 (ip), vehicle: saline 101 % of control | endpoint: median survival time, dose: 200.0 mg/kg/injection, schedule: Q01DX005 (ip), vehicle: saline 101 % of control

O=S1(=O)CC23C=CC=CC2(CCCC3)C1Cl (stereo not given)
inactive: endpoint: mean survival time, dose: 100.0 mg/kg/injection, schedule: Q04DX003 (ip), vehicle: other 94 % of control

Cc1cccc(CC(F)F)c1
inactive: [7] 109 % of control | [8] 104 % of control | [1] 97 % of control | [9] 103 % of control | [2] 96 % of control

CC(C)OC(=O)Oc1cccs1
inactive: endpoint: mean survival time, dose: 12.5 mg/kg/injection, schedule: Q01DX009 (ip), vehicle: saline with Tween-80 102 % of control | endpoint: mean survival time, dose: 12.5 mg/kg/injection, schedule: Q04DX003 (ip), vehicle: saline sonified 103 % of control | endpoint: mean survival time, dose: 25.0 mg/kg/injection, schedule: Q01DX009 (ip), vehicle: saline with Tween-80 96 % of control | endpoint: mean survival time, dose: 25.0 mg/kg/injection, schedule: Q04DX003 (ip), vehicle: saline sonified 97 % of control | endpoint: mean survival time, dose: 50.0 mg/kg/injection, schedule: Q01DX009 (ip), vehicle: saline with Tween-80 104 % of control | endpoint: mean survival time, dose: 50.0 mg/kg/injection, schedule: Q04DX003 (ip), vehicle: saline sonified 101 % of control

NC(=O)c1n[nH]c(C2OC(CO)C(O)C2O)n1 (stereo not given)
inactive: endpoint: mean survival time, dose: 12.5 mg/kg/injection, schedule: Q01DX005 (ip), vehicle: water 94 % of control | endpoint: mean survival time, dose: 25.0 mg/kg/injection, schedule: Q01DX005 (ip), vehicle: water 92 % of control | endpoint: mean survival time, dose: 50.0 mg/kg/injection, schedule: Q01DX005 (ip), vehicle: water 94 % of control | endpoint: mean survival time, dose: 100.0 mg/kg/injection, schedule: Q01DX005 (ip), vehicle: water 94 % of control | endpoint: mean survival time, dose: 200.0 mg/kg/injection, schedule: Q01DX005 (ip), vehicle: water 96 % of control

CN(C)c1ccc(C(O)C(N)=O)cc1 (stereo not given)
inactive: endpoint: mean survival time, dose: 6.25 mg/kg/injection, schedule: Q01DX009 (ip), vehicle: saline 94 % of control | endpoint: mean survival time, dose: 6.25 mg/kg/injection, schedule: Q04DX003 (ip), vehicle: saline 102 % of control | endpoint: mean survival time, dose: 12.5 mg/kg/injection, schedule: Q01DX009 (ip), vehicle: saline 94 % of control | endpoint: mean survival time, dose: 12.5 mg/kg/injection, schedule: Q04DX003 (ip), vehicle: saline 95 % of control | endpoint: mean survival time, dose: 25.0 mg/kg/injection, schedule: Q01DX009 (ip), vehicle: saline 93 % of control | endpoint: mean survival time, dose: 25.0 mg/kg/injection, schedule: Q04DX003 (ip), vehicle: saline 106 % of control

C=CC1CC[N-]CC1.C=CC1CC[N-]CC1.C=CC1CC[N-]CC1.[Cl][Cr]([Cl])[Cl]
inactive: [10] 102 % of control

C=C(c1cn(C(C)=O)c2ccccc12)c1cn(C(C)=O)c2ccccc12
inactive: [4] 95 % of control | [5] 96 % of control | [6] 98 % of control

c1ccc(-c2ncnc3ccccc23)cc1
inactive: [1] 103 % of control | [2] 101 % of control | [3] 97 % of control

C/C(=N\Nc1ccc2ccccc2n1)c1ccccc1O
inactive: endpoint: mean survival time, dose: 100.0 mg/kg/injection, schedule: Q04DX002 (ip), vehicle: saline with Tween-80 98 % of control | endpoint: mean survival time, dose: 200.0 mg/kg/injection, schedule: Q04DX002 (ip), vehicle: saline with Tween-80 98 % of control | endpoint: mean survival time, dose: 400.0 mg/kg/injection, schedule: Q04DX002 (ip), vehicle: saline with Tween-80 110 % of control

CC(=O)Oc1ccc(N2C(=O)C3C(C2=O)C2c4ccccc4C3C3CCCCN32)cc1 (stereo not given) (tested in a mixture with another compound)
inactive: endpoint: mean survival time, dose: 25.0 mg/kg/injection, schedule: Q01DX009 (ip), vehicle: water 101 % of control | endpoint: mean survival time, dose: 50.0 mg/kg/injection, schedule: Q01DX009 (ip), vehicle: water 95 % of control | endpoint: mean survival time, dose: 100.0 mg/kg/injection, schedule: Q01DX009 (ip), vehicle: water 95 % of control | endpoint: mean survival time, dose: 200.0 mg/kg/injection, schedule: Q01DX009 (ip), vehicle: water 90 % of control

O=c1[nH]c2ccccc2o1
inactive: endpoint: mean survival time, dose: 12.5 mg/kg/injection, schedule: Q01DX009 (iv), vehicle: methylcellulose (MC) 95 % of control | endpoint: mean survival time, dose: 25.0 mg/kg/injection, schedule: Q01DX009 (iv), vehicle: methylcellulose (MC) 90 % of control | endpoint: mean survival time, dose: 50.0 mg/kg/injection, schedule: Q01DX009 (iv), vehicle: methylcellulose (MC) 94 % of control

CCOC(=O)C#Cc1cccc(C(=O)OC)c1-c1c(I)cccc1C(=O)OC
inactive: endpoint: median survival time, dose: 12.5 mg/kg/injection, schedule: Q04DX003 (ip), vehicle: saline with Tween-80 100 % of control | endpoint: median survival time, dose: 25.0 mg/kg/injection, schedule: Q04DX003 (ip), vehicle: saline with Tween-80 100 % of control | endpoint: median survival time, dose: 50.0 mg/kg/injection, schedule: Q04DX003 (ip), vehicle: saline with Tween-80 88 % of control | endpoint: median survival time, dose: 100.0 mg/kg/injection, schedule: Q04DX003 (ip), vehicle: saline with Tween-80 88 % of control

Nc1nc(-c2cccc([N+](=O)[O-])c2)c(N=Nc2cccc([N+](=O)[O-])c2)s1
inactive: [8] 89 % of control | [11] 90 % of control

COC(=O)CNC(=O)C1CCCN1C(=O)OC(C)(C)C (stereo not given) (Boc-[ξP]-Gly-OMe)
inactive: [10] 94 % of control | endpoint: mean survival time, dose: 200.0 mg/kg/injection, schedule: Q04DX003 (ip), vehicle: saline 97 % of control | endpoint: mean survival time, dose: 400.0 mg/kg/injection, schedule: Q04DX003 (ip), vehicle: saline 107 % of control

CCNCc1ccc(OC)cc1
inactive: endpoint: mean survival time, dose: 25.0 mg/kg/injection, schedule: Q04DX003 (ip), vehicle: saline with Tween-80 106 % of control | [7] 104 % of control | [1] 93 % of control

CCOC(=O)C[n+]1ccc(C(=O)c2cc3ccccc3[nH]2)cc1
inactive: [8] 97 % of control | [9] 101 % of control | [11] 93 % of control

c1ccc2nc3c(nc2c1)[nH]c1ccccc13
inactive: [8] 100 % of control | [9] 92 % of control | [11] 89 % of control

NNC(=O)c1cc2ccccc2cc1O
inactive: [4] 97 % of control | [5] 86 % of control | [6] 94 % of control

CC(C)CCCC(C)C1CCC2C3CC(CO)C4CC(O)CCC4(C)C3CCC12C (stereo not given)
inactive: [1] 87 % of control | [2] 88 % of control
